Test results published in US6737383B1, “Herbicidal oxadiazolidines” (priority 1999, dated 2004).

Experiments:
cocklebur = assay: Test B pre/postemergence cocklebur; type: in vivo, Xanthium strumarium
Procedure, shortened: (§1)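 Herbicidal effect was estimated by eye on a ten-point control scale after plants spent twelve to sixteen days in a greenhouse following soil or foliar treatment. Foliar sprays targeted plants at one to four leaves; all doses were formulated in a non-phytotoxic solvent with surfactant.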

bamyardgrass = assay: Test B flood test barnyardgrass; type: in vivo, Echinochloa crus-galli
Procedure, shortened: (§2)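 Each value is a visual injury score relative to controls, with 10 meaning complete control and 0 no effect. Evaluation took place twelve to sixteen days after the 2-leaf-stage plants were treated and kept in the greenhouse.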

wheat = assay: Test B pre/postemergence wheat; type: in vivo, Triticum aestivum
Procedure, shortened: as §1

corn = assay: Test B pre/postemergence corn; type: in vivo, Zea mays
Procedure, shortened: as §1

surinam grass = assay: Test B pre/postemergence surinam grass; type: in vivo, Brachiaria decumbens
Procedure, shortened: as §1

purple nutsedge = assay: Test B pre/postemergence purple nutsedge; type: in vivo, Cyperus rotundus
Procedure, shortened: as §1

velvetleaf = assay: Test B pre/postemergence velvetleaf; type: in vivo, Abutilon theophrasti
Procedure, shortened: as §1

blackgrass = assay: Test B pre/postemergence blackgrass; type: in vivo, Alopecurus myosuroides
Procedure, shortened: as §1

wild oat = assay: Test B pre/postemergence wild oat; type: in vivo, Avena fatua
Procedure, shortened: as §1

morningglory = assay: Test B pre/postemergence morningglory; type: in vivo, Ipomoea hederacea
Procedure, shortened: as §1

giant foxtail = assay: Test B pre/postemergence giant foxtail; type: in vivo, Setaria faberii
Procedure, shortened: as §1

duck salad = assay: Test B flood test duck salad; type: in vivo, Heteranthera limosa
Procedure, shortened: as §2

bedstraw = assay: Test B pre/postemergence bedstraw; type: in vivo, Galium aparine; details: Postemergence
Procedure, shortened: as §1

crabgrass = assay: Test B pre/postemergence crabgrass; type: in vivo, Digitaria sanguinalis
Procedure, shortened: as §1

smallflower flatsedge = assay: Test B flood test smallflower flatsedge; type: in vivo, Cyperus difformis
Procedure, shortened: as §2

rice = assay: Test B flood test rice; type: in vivo, Oryza sativa
Procedure, shortened: as §2

[1] = Postemergence, Rate 250 g/ha, scale 0 to 10
[2] = Postemergence, Rate 500 g/ha, scale of 0 to 10 where 0 is no effect and 10 is complete control
[3] = Preemergence, Rate 62 g/ha, scale 0 to 10 (0 no effect, 10 complete control)
[4] = Preemergence, Rate 125 g/ha, scale of 0 to 10 where 0 is no effect and 10 is complete control
[5] = Preemergence, Rate 250 g/ha, scale 0 to 10, 0 is no effect, 10 is complete control
[6] = Preemergence, Rate 500 g/ha, scale 0 to 10, 0 is no effect, 10 is complete control
[7] = Rate 62 g/ha, Postemergence, scale of 0 to 10 where 0 is no effect and 10 is complete control
[8] = Rate 125 g/ha, Postemergence, scale 0 to 10, 0 is no effect, 10 is complete control
[9] = Postemergence block (flood test species), Rate 250 g/ha, scale 0 to 10
[10] = Postemergence section (flood test species), Rate 500 g/ha, scale of 0 to 10 where 0 is no effect and 10 is complete control
[11] = Rate 62 g/ha, Postemergence (flood test species), scale of 0 to 10 where 0 is no effect and 10 is complete control
[12] = Rate 125 g/ha, Postemergence section (flood test species), scale 0 to 10, 0 is no effect, 10 is complete control

CC(C)N(C(=O)n1oc(=O)n(CC2=NOCCC2)c1=O)c1ccccc1 [Compound 430]
Cocklebur plant response rating (cocklebur; [1]): 0 | Cocklebur plant response rating (cocklebur; [2]): 1 | Plant response rating, Cocklebur (cocklebur; [3]): 0 | Plant response rating, Cocklebur (cocklebur; [4]): 0 | Cocklebur plant response rating (cocklebur; [5]): 0 | Cocklebur plant response rating (cocklebur; [6]): 0 | Cocklebur plant response rating (cocklebur; [7]): 0 | Cocklebur plant response rating (cocklebur; [8]): 0 | Barnyardgrass plant response rating (bamyardgrass; [9]): 0 | Barnyardgrass plant response rating (bamyardgrass; [10]): 0 | Barnyardgrass plant response rating (bamyardgrass; [11]): 0 | Barnyardgrass plant response rating (bamyardgrass; [12]): 0 | Wheat plant response rating (wheat; [1]): 0 | Wheat plant response rating (wheat; [2]): 0 | Plant response rating, Wheat (wheat; [3]): 0 | Plant response rating, Wheat (wheat; [4]): 0 | Wheat plant response rating (wheat; [5]): 0 | Wheat plant response rating (wheat; [6]): 5 | Wheat plant response rating (wheat; [8]): 0 | Corn plant response rating (corn; [1]): 2 | Corn plant response rating (corn; [2]): 4 | Plant response rating, Corn (corn; [3]): 0 | Plant response rating, Corn (corn; [4]): 0 | Corn plant response rating (corn; [5]): 0 | Corn plant response rating (corn; [6]): 2 | Corn plant response rating (corn; [7]): 0 | Corn plant response rating (corn; [8]): 0 | B. signalgrass plant response rating (surinam grass; Postemergence, Rate 250 g/ha, scale 0 to 10, 0 no effect, 10 complete control): 6 | B. signalgrass plant response rating (surinam grass; [2]): 8 | Plant response rating, B. signalgrass (surinam grass; [3]): 1 | Plant response rating, B. signalgrass (surinam grass; [4]): 2 | B. signalgrass plant response rating (surinam grass; [5]): 3 | B. signalgrass plant response rating (surinam grass; [6]): 3 | B. signalgrass plant response rating (surinam grass; [7]): 0 | B. signalgrass plant response rating (surinam grass; [8]): 1 | Nutsedge plant response rating (purple nutsedge; [1]): 2 | Nutsedge plant response rating (purple nutsedge; [2]): 6 | Plant response rating, Nutsedge (purple nutsedge; [3]): 0 | Plant response rating, Nutsedge (purple nutsedge; [4]): 0 | Nutsedge plant response rating (purple nutsedge; [5]): 0 | Nutsedge plant response rating (purple nutsedge; [6]): 0 | Nutsedge plant response rating (purple nutsedge; [8]): 0 | Velvetleaf plant response rating (velvetleaf; [1]): 0 | Velvetleaf plant response rating (velvetleaf; [2]): 3 | Plant response rating, Velvetleaf (velvetleaf; [3]): 0 | Plant response rating, Velvetleaf (velvetleaf; [4]): 2 | Velvetleaf plant response rating (velvetleaf; [5]): 4 | Velvetleaf plant response rating (velvetleaf; [6]): 7 | Velvetleaf plant response rating (velvetleaf; [8]): 0 | Blackgrass plant response rating (blackgrass; [1]): 7 | Blackgrass plant response rating (blackgrass; [2]): 8 | Plant response rating, Blackgrass (blackgrass; [3]): 0 | Plant response rating, Blackgrass (blackgrass; [4]): 3 | Blackgrass plant response rating (blackgrass; [5]): 7 | Blackgrass plant response rating (blackgrass; [6]): 9 | Blackgrass plant response rating (blackgrass; [7]): 2 | Blackgrass plant response rating (blackgrass; [8]): 3 | Wild oats plant response rating (wild oat; [1]): 0 | Wild oats plant response rating (wild oat; [2]): 0 | Plant response rating, Wild oats (wild oat; [3]): 0 | Plant response rating, Wild oats (wild oat; [4]): 0 | Wild oats plant response rating (wild oat; [5]): 3 | Wild oats plant response rating (wild oat; [6]): 3 | Wild oats plant response rating (wild oat; [8]): 0 | Morningglory plant response rating (morningglory; [1]): 3 | Morningglory plant response rating (morningglory; [2]): 3 | Plant response rating, Morningglory (morningglory; [3]): 0 | Plant response rating, Morningglory (morningglory; [4]): 0 | Morningglory plant response rating (morningglory; [5]): 0 | Morningglory plant response rating (morningglory; [6]): 0 | Morningglory plant response rating (morningglory; [8]): 2 | Giant foxtail plant response rating (giant foxtail; [1]): 9 | Giant foxtail plant response rating (giant foxtail; [2]): 9 | Plant response rating, Giant foxtail (giant foxtail; [3]): 10 | Plant response rating, Giant foxtail (giant foxtail; [4]): 10 | Giant foxtail plant response rating (giant foxtail; [5]): 10 | Giant foxtail plant response rating (giant foxtail; [6]): 10 | Giant foxtail plant response rating (giant foxtail; [7]): 6 | Giant foxtail plant response rating (giant foxtail; [8]): 8 | Ducksalad plant response rating (duck salad; [9]): 0 | Ducksalad plant response rating (duck salad; [10]): 0 | Ducksalad plant response rating (duck salad; [11]): 0 | Ducksalad plant response rating (duck salad; [12]): 0 | Bedstraw plant response rating (bedstraw; Rate 250 g/ha, scale 0 to 10): 0 | Bedstraw plant response rating (bedstraw; Rate 500 g/ha, scale of 0 to 10 where 0 is no effect and 10 is complete control): 3 | Bedstraw plant response rating (bedstraw; Rate 125 g/ha, scale 0 to 10, 0 is no effect, 10 is complete control): 0 | Crabgrass plant response rating (crabgrass; [1]): 8 | Crabgrass plant response rating (crabgrass; [2]): 9 | Plant response rating, Crabgrass (crabgrass; [3]): 9 | Plant response rating, Crabgrass (crabgrass; [4]): 10 | Crabgrass plant response rating (crabgrass; [5]): 10 | Crabgrass plant response rating (crabgrass; [6]): 10 | Crabgrass plant response rating (crabgrass; [7]): 1 | Crabgrass plant response rating (crabgrass; [8]): 2 | S. Flatsedge plant response rating (smallflower flatsedge; [9]): 0 | S. Flatsedge plant response rating (smallflower flatsedge; [10]): 0 | S. Flatsedge plant response rating (smallflower flatsedge; [12]): 0 | Rice plant response rating (rice; [9]): 0 | Rice plant response rating (rice; [10]): 0 | Rice plant response rating (rice; [12]): 0
